Test [1] deals with T1, hGIPR (Homo sapiens, UniProt P48546).
T1 construct: expressed in transfected cells
T1 sequence (P48546 22-466): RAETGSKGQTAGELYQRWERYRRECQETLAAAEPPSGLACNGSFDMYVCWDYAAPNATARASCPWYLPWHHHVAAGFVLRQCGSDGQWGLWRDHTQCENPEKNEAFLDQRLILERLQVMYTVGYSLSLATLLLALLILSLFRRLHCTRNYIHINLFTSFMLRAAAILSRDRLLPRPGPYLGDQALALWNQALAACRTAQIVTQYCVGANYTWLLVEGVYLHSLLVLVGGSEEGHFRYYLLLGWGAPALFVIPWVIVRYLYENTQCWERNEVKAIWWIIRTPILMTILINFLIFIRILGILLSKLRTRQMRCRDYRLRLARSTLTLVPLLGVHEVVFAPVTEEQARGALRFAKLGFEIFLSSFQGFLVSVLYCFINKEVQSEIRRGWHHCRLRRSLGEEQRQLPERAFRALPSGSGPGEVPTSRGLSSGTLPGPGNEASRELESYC
In words: Functional cAMP formation (HTRF) in HEK-293 clonal cells expressing hGIPR, 0.1% bovine casein, without or with 1.0% human serum albumin. It is filed as cell-based. The note with it: for EC50: geometric mean. In a few lines: (§1)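 Cells were stimulated with peptide for 30 min at 37° C, then intracellular cAMP was measured by competitive HTRF (665/620 nm ratio) and converted to nM using a cAMP standard curve. Relative EC50 and Emax came from four-parameter logistic fits of percent maximal response against peptide concentration.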
Background: Cyclic AMP is a second messenger, typically raised through Gs and lowered through Gi signalling.

The target of test [2] is T2, hGCGR (Homo sapiens, UniProt P47871).
T2 construct: expressed in transfected cells
Kind of test: Functional cAMP formation (HTRF) in HEK-293 clonal cells expressing hGCGR, 0.1% bovine casein, without or with 1.0% human serum albumin. It is filed as cell-based. The note with it: geometric mean. In a few lines:
as §1

The mark [3] stands for this setting: HEK293, read-out: hGIPR Emax, % ± SEM, percent of maximal response to GIP(1-42)NH2, 37° C., 0.1% bovine casein, arithmetic mean.
The mark [4] stands for this setting: hGIPR EC50, nM (SEM, n), cAMP, incubated at 37° C., 0.1% bovine casein (no human serum albumin).
The mark [5] stands for this setting: hGCGR EC50, nM (SEM, n), cAMP, incubated at 37° C., 0.1% bovine casein (no human serum albumin).
The mark [6] stands for this setting: HEK293, percent of maximal response to GIP(1-42)NH2, 37° C., 0.1% bovine casein, arithmetic mean, read-out: hGIPR Emax, % ± SEM.
Where [7] appears, read: cAMP, incubated at 37° C., 0.1% bovine casein (no human serum albumin), read-out: hGCGR EC50, nM (SEM, n).

Where two headings read alike, the source gives them in different places. Some results are limits rather than exact numbers.

T2 sequence (P47871 26-477): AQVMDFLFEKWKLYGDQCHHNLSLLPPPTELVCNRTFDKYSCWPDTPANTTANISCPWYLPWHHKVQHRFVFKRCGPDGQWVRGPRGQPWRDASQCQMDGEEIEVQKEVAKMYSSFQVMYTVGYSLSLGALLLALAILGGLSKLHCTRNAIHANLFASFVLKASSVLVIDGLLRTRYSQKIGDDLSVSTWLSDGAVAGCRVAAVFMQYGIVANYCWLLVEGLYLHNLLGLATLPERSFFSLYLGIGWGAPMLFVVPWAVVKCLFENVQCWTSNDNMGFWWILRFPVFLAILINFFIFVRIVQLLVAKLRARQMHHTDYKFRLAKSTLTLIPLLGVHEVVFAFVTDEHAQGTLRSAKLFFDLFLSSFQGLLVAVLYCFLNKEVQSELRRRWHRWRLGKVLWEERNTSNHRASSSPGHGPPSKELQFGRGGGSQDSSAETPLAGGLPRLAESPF

Take `CC[C@H](C)[C@H](NC(=O)[C@H](CC(C)C)NC(=O)[C@](C)(Cc1ccccc1)NC(=O)[C@H](CCCCNC(=O)COCCOCCNC(=O)COCCOCCNC(=O)CC[C@H](NC(=O)CCCCCCCCCCCCC(=O)O)C(=O)O)NC(=O)[C@@H](NC(=O)[C@H](Cc1ccccc1)NC(=O)[C@H](CCC(=O)O)NC(=O)C(C)(C)NC(=O)[C@H](CCC(N)=O)NC(=O)[C@H](C)NC(=O)[C@H](CCCCNC(=O)COCCOCCNC(=O)COCCOCCNC(=O)CC[C@H](NC(=O)CCCCCCCCCCCCC(=O)O)C(=O)O)NC(=O)[C@H](CCCN)NC(=O)[C@H](CC(=O)O)NC(=O)[C@H](CC(C)C)NC(=O)[C@](C)(CC(C)C)NC(=O)[C@@H](NC(=O)[C@H](CO)NC(=O)[C@H](Cc1ccncc1)NC(=O)[C@H](CC(=O)O)NC(=O)[C@H](CO)NC(=O)[C@@H](NC(=O)[C@](C)(Cc1ccccc1F)NC(=O)[C@@H](NC(=O)CNC(=O)[C@H](CCC(=O)O)NC(=O)C(C)(C)NC(=O)[C@@H](N)Cc1ccc(O)cc1)[C@@H](C)O)[C@@H](C)O)[C@@H](C)CC)[C@@H](C)CC)C(=O)N[C@@H](CCC(=O)O)C(=O)NCC(=O)NCC(=O)N1CCC[C@H]1C(=O)N[C@@H](CO)C(=O)N[C@@H](CO)C(=O)NCC(=O)N[C@@H](C)C(=O)N1CCC[C@H]1C(=O)N1CCC[C@H]1C(=O)N1CCC[C@H]1C(=O)N[C@@H](CO)C(N)=O` [Example 83]: the Emax in test [1] (setting [3]) is 89.6 ± 7.35%. Also, the EC50 is 0.0223 nM in test [1] (setting [4]) and over 9950 nM in test [2] (setting [5]).
The like results for `CC[C@H](C)[C@H](NC(=O)[C@H](CCCN)NC(=O)[C@H](CC(=O)O)NC(=O)[C@H](CC(C)C)NC(=O)[C@](C)(CC(C)C)NC(=O)[C@@H](NC(=O)[C@H](CO)NC(=O)[C@H](CCCCNC(=O)COCCOCCNC(=O)COCCOCCNC(=O)CC[C@H](NC(=O)CCCCCCCCCCCCC(=O)O)C(=O)O)NC(=O)[C@H](CC(=O)O)NC(=O)[C@H](CO)NC(=O)[C@@H](NC(=O)[C@](C)(Cc1ccccc1F)NC(=O)[C@@H](NC(=O)CNC(=O)[C@H](CCC(=O)O)NC(=O)C(C)(C)NC(=O)[C@@H](N)Cc1ccc(O)cc1)[C@@H](C)O)[C@@H](C)O)[C@@H](C)CC)C(=O)N[C@@H](C)C(=O)N[C@@H](CCC(N)=O)C(=O)NC(C)(C)C(=O)N[C@@H](CCC(=O)O)C(=O)N[C@@H](Cc1ccccc1)C(=O)N[C@H](C(=O)N[C@@H](CCCCNC(=O)COCCOCCNC(=O)COCCOCCNC(=O)CC[C@H](NC(=O)CCCCCCCCCCCCC(=O)O)C(=O)O)C(=O)N[C@@](C)(Cc1ccc(O)cc1)C(=O)N[C@@H](CC(C)C)C(=O)N[C@H](C(=O)N[C@@H](CCC(=O)O)C(=O)NCC(=O)NCC(=O)N1CCC[C@H]1C(=O)N[C@@H](CO)C(=O)N[C@@H](CO)C(=O)NCC(=O)N[C@@H](C)C(=O)N1CCC[C@H]1C(=O)N1CCC[C@H]1C(=O)N1CCC[C@H]1C(=O)N[C@@H](CO)C(N)=O)[C@@H](C)CC)[C@@H](C)CC` [Example 106] were, in that order, 98.7 ± 3.32%, 0.0385 nM and over 9950 nM.
Turning to `CC[C@H](C)[C@H](NC(=O)[C@H](CC(C)C)NC(=O)[C@](C)(Cc1ccc(O)cc1)NC(=O)[C@@H](CCC(=O)O)NC(=O)[C@@H](NC(=O)[C@H](Cc1ccccc1)NC(=O)[C@H](CCC(=O)O)NC(=O)C(C)(C)NC(=O)[C@H](CCC(N)=O)NC(=O)[C@H](C)NC(=O)[C@H](CCCCNC(=O)COCCOCCNC(=O)COCCOCCNC(=O)CC[C@H](NC(=O)CCCCCCCCCOc1ccc(C(=O)O)cc1)C(=O)O)NC(=O)[C@H](CCCN)NC(=O)[C@H](CC(=O)O)NC(=O)[C@H](CC(C)C)NC(=O)[C@](C)(CC(C)C)NC(=O)[C@@H](NC(=O)[C@H](CO)NC(=O)[C@H](Cc1ccc2ccccc2c1)NC(=O)[C@H](CC(=O)O)NC(=O)[C@H](CO)NC(=O)[C@@H](NC(=O)[C@](C)(Cc1ccccc1F)NC(=O)[C@@H](NC(=O)CNC(=O)[C@H](CCC(=O)O)NC(=O)C(C)(C)NC(=O)[C@@H](N)Cc1ccc(O)cc1)[C@@H](C)O)[C@@H](C)O)[C@@H](C)CC)[C@@H](C)CC)C(=O)N[C@@H](CCCCNC(=O)COCCOCCNC(=O)COCCOCCNC(=O)CC[C@H](NC(=O)CCCCCCCCCOc1ccc(C(=O)O)cc1)C(=O)O)C(=O)NCC(=O)NCC(=O)N1CCC[C@H]1C(=O)N[C@@H](CO)C(=O)N[C@@H](CO)C(=O)NCC(=O)N[C@@H](C)C(=O)N1CCC[C@H]1C(=O)N1CCC[C@H]1C(=O)N1CCC[C@H]1C(=O)N[C@@H](CO)C(N)=O` [Example 282], the Emax in test [1] (HEK293, read-out: hGIPR Emax, % ± SEM, 0.1% bovine casein and 1.0% human serum albumin, 37° C., percent of maximal response to GIP(1-42)NH2) was found to be 84.4%. Further, the EC50 in test [1] (hGIPR EC50, nM (SEM, n), 0.1% bovine casein and 1.0% human serum albumin, 37° C.) is 1.44 nM; in test [1] (hGIPR EC50, nM (SEM, n), cAMP, 37° C., 0.1% bovine casein (no human serum albumin)) it was 0.0193 nM; in test [2] (hGCGR EC50, nM (SEM, n), 0.1% bovine casein and 1.0% human serum albumin, 37° C.), over 9950 nM; in test [2] (hGCGR EC50, nM (SEM, n), cAMP, 37° C., 0.1% bovine casein (no human serum albumin)), over 9950 nM.
As for `CC[C@H](C)[C@H](NC(=O)[C@H](CC(C)C)NC(=O)[C@](C)(Cc1ccc(O)cc1)NC(=O)[C@@H](CCC(=O)O)NC(=O)[C@@H](NC(=O)[C@H](Cc1ccccc1)NC(=O)[C@H](CCC(=O)O)NC(=O)C(C)(C)NC(=O)[C@H](CCC(N)=O)NC(=O)[C@H](C)NC(=O)[C@H](CCCCNC(=O)COCCOCCNC(=O)COCCOCCNC(=O)CC[C@H](NC(=O)CCCCCCCCCCCCC(=O)O)C(=O)O)NC(=O)CNC(=O)[C@H](CC(=O)O)NC(=O)[C@H](CC(C)C)NC(=O)[C@](C)(CC(C)C)NC(=O)[C@@H](NC(=O)[C@H](CO)NC(=O)[C@H](Cc1ccncc1)NC(=O)[C@H](CC(=O)O)NC(=O)[C@H](CO)NC(=O)[C@@H](NC(=O)[C@](C)(Cc1ccccc1F)NC(=O)[C@@H](NC(=O)CNC(=O)[C@H](CCC(=O)O)NC(=O)C(C)(C)NC(=O)[C@@H](N)Cc1ccc(O)cc1)[C@@H](C)O)[C@@H](C)O)[C@@H](C)CC)[C@@H](C)CC)C(=O)N[C@@H](CCC(=O)O)C(=O)NCC(=O)NCC(=O)N[C@@H](CCCCNC(=O)COCCOCCNC(=O)COCCOCCNC(=O)CC[C@H](NC(=O)CCCCCCCCCCCCC(=O)O)C(=O)O)C(=O)N[C@@H](CO)C(=O)N[C@@H](CO)C(=O)NCC(=O)N[C@@H](C)C(=O)N1CCC[C@H]1C(=O)N1CCC[C@H]1C(=O)N1CCC[C@H]1C(=O)N[C@@H](CO)C(N)=O` [Example 101], the maximum response (Emax) in test [1] (setting [6]) was 92.1%. The EC50 in test [2] (setting [7]) is over 9950 nM.
On to `CC[C@H](C)[C@H](NC(=O)[C@H](CC(C)C)NC(=O)[C@](C)(Cc1ccc(O)cc1)NC(=O)[C@@H](CCC(=O)O)NC(=O)[C@@H](NC(=O)[C@H](Cc1ccccc1)NC(=O)[C@H](CCC(=O)O)NC(=O)C(C)(C)NC(=O)[C@H](CCC(N)=O)NC(=O)[C@H](C)NC(=O)[C@H](CCCCNC(=O)COCCOCCNC(=O)COCCOCCNC(=O)CC[C@H](NC(=O)CCCCCCOc1ccc(C(=O)O)cc1)C(=O)O)NC(=O)[C@H](CCCN)NC(=O)[C@H](CC(=O)O)NC(=O)[C@H](CC(C)C)NC(=O)[C@](C)(CC(C)C)NC(=O)[C@@H](NC(=O)[C@H](CO)NC(=O)[C@H](Cc1ccncc1)NC(=O)[C@H](CC(=O)O)NC(=O)[C@H](CO)NC(=O)[C@@H](NC(=O)[C@](C)(Cc1ccccc1F)NC(=O)[C@@H](NC(=O)CNC(=O)[C@H](CCC(=O)O)NC(=O)C(C)(C)NC(=O)[C@@H](N)Cc1ccc(O)cc1)[C@@H](C)O)[C@@H](C)O)[C@@H](C)CC)[C@@H](C)CC)C(=O)N[C@@H](CCC(=O)O)C(=O)NCC(=O)NCC(=O)N[C@@H](CCCCNC(=O)COCCOCCNC(=O)COCCOCCNC(=O)CC[C@H](NC(=O)CCCCCCOc1ccc(C(=O)O)cc1)C(=O)O)C(=O)N[C@@H](CO)C(=O)N[C@@H](CO)C(=O)NCC(=O)N[C@@H](C)C(=O)N1CCC[C@H]1C(=O)N1CCC[C@H]1C(=O)N1CCC[C@H]1C(=O)N[C@@H](CO)C(N)=O` [Example 125], for which the Emax in test [1] (setting [6]) was 94.4%. Also, the EC50 in test [1] (cAMP, incubated at 37° C., 0.1% bovine casein (no human serum albumin), read-out: hGIPR EC50, nM (SEM, n)) is 0.0547 nM; in test [2] (setting [7]), over 9950 nM.

By Emax is commonly meant the size of the effect at its maximum, as opposed to the concentration needed. As a reminder, the EC50 is the concentration needed to bring the measured effect to its halfway point.

(Values after patent US20230265151A1, “GIP/GLP1 CO-AGONIST COMPOUNDS” (priority 2020, published 2023).)
